Results on three compounds are retold here after article PMC1500811, “Neofunctionalization in Vertebrates: The Example of Retinoic Acid Receptors” (PLoS Genetics, 2006).

The test system of one assay is T1, xRARβ.
T1 construct: gene rarb; LBD fused to Gal4 residues 1-147; in vitro translated for proteolysis
The assay is described as follows: Gal4-RAR(LBD) luciferase transactivation in Cos-1 cells. The assay is classed as cell-based, Xenopus laevis. To be noted: agonist; one collective range given for all chordate RARs.

Another assay has as its system T2, AncRAR.
T2 construct: maximum-likelihood reconstructed LBD fused to Gal4 residues 1-147
Described as above. It counts as cell-based, synthetic construct. As to conditions: agonist; one collective range given for all chordate RARs. The text has this:
Gal4-RAR(LBD) luciferase transactivation in Cos-1 cells on AncRAR | all the chordate RARs, including the reconstructed AncRAR, are able to transactivate in a dose-dependent manner

Another assay concerns the target T3, xRARα (Xenopus laevis, UniProt P51126).
T3 construct: gene rara; LBD fused to Gal4 residues 1-147; in vitro translated for proteolysis
T3 sequence (P51126 155-458 limits assumed): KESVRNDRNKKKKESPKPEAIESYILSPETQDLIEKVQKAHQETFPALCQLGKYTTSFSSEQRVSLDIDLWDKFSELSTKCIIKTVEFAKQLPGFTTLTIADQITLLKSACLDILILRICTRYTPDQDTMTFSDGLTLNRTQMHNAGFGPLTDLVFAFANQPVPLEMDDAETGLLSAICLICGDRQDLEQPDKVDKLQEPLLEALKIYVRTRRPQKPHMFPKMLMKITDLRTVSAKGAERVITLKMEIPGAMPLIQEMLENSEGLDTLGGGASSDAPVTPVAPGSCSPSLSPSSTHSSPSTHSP
The assay is described as above. The assay is classed as cell-based. As to conditions: agonist; one collective range given for all chordate RARs.

A further assay relates to T4, zfRARγ.
T4 construct: gene rarga; LBD fused to Gal4 residues 1-147; in vitro translated for proteolysis
Described as above. To be noted: agonist; one collective range given for all chordate RARs. The assay is classed as cell-based, Danio rerio.

The target of another assay is T5, xRARγ (Xenopus laevis, UniProt P28699).
T5 construct: gene rarg; LBD fused to Gal4 residues 1-147; in vitro translated for proteolysis
T5 sequence (P28699 166-476 limits assumed): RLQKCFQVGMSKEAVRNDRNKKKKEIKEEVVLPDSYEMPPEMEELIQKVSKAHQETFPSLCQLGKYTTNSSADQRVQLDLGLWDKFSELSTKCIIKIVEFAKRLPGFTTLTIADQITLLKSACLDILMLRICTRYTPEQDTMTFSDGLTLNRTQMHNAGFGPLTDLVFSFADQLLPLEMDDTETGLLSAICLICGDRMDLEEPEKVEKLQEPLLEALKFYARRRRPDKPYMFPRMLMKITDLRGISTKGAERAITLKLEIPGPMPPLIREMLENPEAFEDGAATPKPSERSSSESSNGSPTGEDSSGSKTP
The description is as above. It counts as cell-based. To be noted: agonist; one collective range given for all chordate RARs.

For a further assay, the system named is T6, zfRARα.
T6 construct: gene raraa; LBD fused to Gal4 residues 1-147; in vitro translated for proteolysis
The assay is described as above. It counts as cell-based, Danio rerio. To be noted: agonist; one collective range given for all chordate RARs.

Assay [1] deals with T7, AmphiRAR (Branchiostoma floridae, UniProt Q8MX80). Described as above. As to conditions: agonist; one collective range given for all chordate RARs. More on the design: LBD from Ser154 fused to Gal4 residues 1-147. The assay is classed as cell-based.
Assay [2] deals with T8, PmRAR (Polyandrocarpa misakiensis, UniProt K7ZRU3).
T8 sequence (K7ZRU3 208-503 limits assumed): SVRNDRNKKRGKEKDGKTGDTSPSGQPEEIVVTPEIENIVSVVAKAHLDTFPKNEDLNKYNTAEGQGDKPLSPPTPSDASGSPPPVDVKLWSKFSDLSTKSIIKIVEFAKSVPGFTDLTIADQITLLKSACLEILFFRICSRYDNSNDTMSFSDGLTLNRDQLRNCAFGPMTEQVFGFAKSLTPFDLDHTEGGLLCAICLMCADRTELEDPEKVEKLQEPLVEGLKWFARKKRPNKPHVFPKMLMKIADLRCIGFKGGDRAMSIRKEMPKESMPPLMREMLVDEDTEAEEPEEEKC
The assay is described as above. The assay is classed as cell-based. More on the design: gene Pm-RAR; LBD fused to Gal4 residues 1-147. To be noted: agonist; one collective range given for all chordate RARs.

Assay [3] concerns the target T8, PmRAR. In words: limited trypsin proteolysis of in vitro-translated receptor. To be noted: ligand 10^-4 to 10^-5 M, room temperature. Details: gene Pm-RAR; LBD fused to Gal4 residues 1-147; in vitro translated for proteolysis. The assay is classed as binding.
In assay [4] the target is T7, AmphiRAR. The assay is described as above. Details: LBD from Ser154 fused to Gal4 residues 1-147; in vitro translated for proteolysis. It counts as binding. To be noted: ligand 10^-4 to 10^-5 M, room temperature.

SMILES strings stand for the structures.

T7 sequence (Q8MX80 entry or part of it): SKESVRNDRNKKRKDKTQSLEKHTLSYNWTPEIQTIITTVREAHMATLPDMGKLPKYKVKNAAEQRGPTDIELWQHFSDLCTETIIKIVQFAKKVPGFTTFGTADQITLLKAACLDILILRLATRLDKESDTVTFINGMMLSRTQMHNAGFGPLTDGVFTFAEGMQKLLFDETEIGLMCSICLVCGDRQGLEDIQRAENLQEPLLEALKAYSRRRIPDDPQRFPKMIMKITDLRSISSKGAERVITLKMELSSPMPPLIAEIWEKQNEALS

For `CC1=C(/C=C/C(C)=C/C=C/C(C)=C/C(=O)O)C(C)(C)CCC1` [ATRA], the EC50 with xRARβ, with AncRAR, on xRARα, in the assay with zfRARγ, at xRARγ and with zfRARα was ~ 10^−9 to 10^−8 M in each case. For the same compound, the EC50 on AmphiRAR [1] and on PmRAR [2] was ~ 10^−9 to 10^−8 M throughout.

As to `CC1(C)CC=C(c2ccccc2)c2cc(/C=C/c3ccc(C(=O)O)cc3Cl)ccc21` [BMS641], the “limited trypsin proteolysis of in vitro-translated receptor” value on PmRAR [3] is “both PmRAR and AncRAR are able to bind weakly the β-specific retinoid (BMS641)”.

Consider `CC1(C)C(=O)C(C)(C)c2cc(C(=O)Nc3ccc(C(=O)O)cc3)ccc21` [BMS753], for which, on AmphiRAR [4], the “limited trypsin proteolysis of in vitro-translated receptor” value is given as “It also binds the α-specific compound (BMS753) (Figure 4F)”.
